US20100178362A1, “CHROMIUM COMPLEXES FOR IMPROVEMENT OF MEMORY AND COGNITIVE FUNCTION” (priority 2007, published 2010)
Like-named read-outs stand apart in the source and are kept apart here.

Columns and labels:
rats = settings: cited from earlier work
[1] = system: spatial learning and memory; experiment: Morris Water Maze test of spatial learning and memory; format: in vivo, male Wistar rats; settings: for Improvement of spatial learning and/or memory: control animals and insulin-resistant animals; for Escape latency compared to controls: treatment for twelve weeks
Text: 8-week old, male, Wistar rats were divided into eight groups: four control groups (C) and four insulin-resistant groups (HFD). Insulin resistance was induced in by feeding the rats a high-fat diet (40% of calories as fat). The four groups in the control and insulin-resistant groups included: a no treatment group, a 14.3 mcg chromium picolinate group (CrPic), a 19.7 mcg chromium histidinate group (CrHis), and a 7.15 chromium picolinate and 9.85 chromium histidinate group (CrPic+CrHis). Four rats were assigned to each of the eight groups. Treatments were administered for twelve weeks.
Spatial learning and memory were then tested using the Morris Water Maze test. Rats were placed in a circular water tank (120 cm diameter, 50 cm height) that was partially filled with water (25° C.). Milk powder was used to render the water opaque. Each rat was acclimated to the task with two days of free-swimming in the pool with no platform. […] Distal spatial cues were provided and kept constant throughout the testing, such that the rats could use the cues to find the platform. Rats were given 60 seconds to find the platform during each trial. The escape latency was defined as the time required for the rat to find a hidden platform.
A probe trial was performed in which the hidden platform was removed from the pool, and the animal was allowed to swim for 60 seconds. Typically, a rat will swim in a quadrant of the pool where the platform was previously hidden.

[2] = Placebo-controlled trial in Mild Cognitive Impairment: chromium to creatinine ratio; format: in vivo, men and women
Experimental: (§1) A randomized, double blind, placebo-controlled trial is conducted to evaluate the efficacy of chromium picolinate in producing enhancements of neuropsychological function in men and women with Mild Cognitive Impairment. Changes in indices of glucose metabolism and in salivary cortisol levels also are measured to gather exploratory information concerning potential mechanisms by which the intervention produces its effects. The subjects participate in a 12-week protocol with major assessments of neuropsychological and biological measures at pre-treatment baseline and during the final week of the intervention. In addition, a brief interim evaluation of neurocognitive function is conducted at 6 weeks to gather information that to assess trends and acute response. Mood, as a potential covariate of the neurobehavioral outcome measures, is also assessed. Overall diet and consumption of other supplements are assessed with diet diaries at different phases of the intervention. Compliance and adverse responses are monitored throughout the period of the intervention by means of weekly telephone contacts.
(§2) Chromium picolinate: The chromium supplement is provided by Nutrition21, Purchase, N.Y., a major distributor of the chromium picolinate supplement form. […]

memory function = experiment: California Verbal Learning Test in trial subjects with Mild Cognitive Impairment; format: in vivo, men and women
Experimental: as §1
California Verbal Learning Test: The California Verbal Learning Test (CVLT) is among the best designed of a number of list learning procedures used to assess memory consolidation ability. It provides data on learning rate or efficiency, interference effects, recall, and recognition memory. Reliability and validity data are adequate and well established. Our data with a middle-aged sample indicated a trend for recall and recognition memory effects on this procedure.
(§3) Chromium picolinate: The chromium supplement is provided by Nutrition21, Purchase, N.Y., a major distributor of the chromium picolinate supplement form. A single capsule 1000 mcg dose is administered to subjects receiving the chromium treatment with the morning meal each day for the duration of the intervention. Similar appearing placebo capsules are administered in a similar manner to subjects receiving the placebo treatment.

motor speed = experiment: Trail-Making task in trial subjects with Mild Cognitive Impairment; format: in vivo, men and women
Experimental: as §1, §2

cerebral activation = experiment: fMRI during working memory (visual-spatial n-back) task in trial subjects with Mild Cognitive Impairment; format: in vivo, men and women
Experimental: as §1, §3
A neuropsychological protocol is administered and fMRI scans are obtained before and after treatments using a Varian INOVA 4 Tesla scanner. Two runs of BOLD EPI, 30 contiguous 5 mm coronal slices are acquired. Images are obtained while subjects performed the NIH visual-spatial n-back task with 0- and 1-back blocks. There are 20, 1.5 s trials per block; each block repeated 6 times. Image analyses are performed using AFNI and included co-registration, motion correction, blur, normalization, and event-related analysis. […]

HFD/STZ-treated rats = experiment: Rat model of type 2 diabetes (high-fat diet + streptozotocin): chromium, carbohydrate metabolism and serotonergic properties; format: in vivo, male Sprague-Dawley rats; set-up: Cortisol: unit not given here
Experimental: An animal model of type 2 diabetes was produced by feeding male Sprague-Dawley rats (n=33) with a high-fat diet (HFD, 40% Kcal from fat) for 2 weeks, then intraperitoneally administering streptozotocin (STZ, 40 mg/kg). The HFD/STZ-treated rats were then administered 80 mcg chromium picolinate/kg body weight/day for 10 weeks. Chromium picolinate was obtained from Nutrition 21, Purchase, N.Y. Untreated Sprague-Dawley (standard control diet) and HFD/STZ-treated rats not administered chromium picolinate served as controls.
Chromium picolinate administration to HFD/STZ treated rats increased brain chromium levels and improved all measurements or carbohydrate metabolism and serotonergic properties.

[3] = control rats (C), FIGS. 1A and 1C
[4] = Study 1: 1000 mcg elemental chromium daily, 12 weeks, v placebo, effect size moderate
[5] = as printed under Results - Study 2
[6] = 80 mcg chromium picolinate/kg body weight/day for 10 weeks, mean ± SD
[7] = 80 mcg/kg body weight/day for 10 weeks

[Cl][Cr]([Cl])[Cl] [chromium chloride]
Toxic effects (rats; rats, levels several thousand times the upper limit of the human ESADDI for chromium (based on body weight)): without toxic effects

chromium histidinate
Improvement of spatial learning and/or memory [1]: effective in improving spatial learning and/or memory
Escape latency compared to controls [1, 3]: significantly shorter escape latencies on day 3
Escape latency compared to controls ([1]; insulin-resistant rats (HFD), FIGS. 1B and 1D): significantly shorter escape latencies on days 3 and 5

chromium picolinate
Toxic effects (rats; rat, in vivo): without toxic effects
Chromium to creatinine ratios at treatment termination ([2]; Study 1: 1000 mcg elemental chromium daily for 12 weeks (n=11) v placebo (n=10), F=8.85, p=0.008): significantly elevated
Chromium to creatinine ratios at treatment termination ([2]; Study 2: 1000 mcg elemental chromium daily for 12 weeks (n=9) v placebo (n=4), F=8.86, p<0.0001): elevated
Accuracy of memory on the California Verbal Learning Test (memory function; Study 1: 1000 mcg elemental chromium daily, 12 weeks, v placebo): No group differences
Semantic interference (free recall intrusions) (memory function; [4]): trend for reduced semantic interference
Intrusion errors on the California Verbal Learning Test (memory function; Study 2: administered outside the scanner, relative to the placebo group): reduced intrusion errors
Accuracy of memory on the California Verbal Learning Test (memory function; [5]): No group differences
Semantic interference (memory function; [5]): trend for reduced semantic interference
Improvement of spatial learning and/or memory [1]: effective in improving spatial learning and/or memory
Escape latency compared to controls [1, 3]: significantly shorter escape latencies on day 3
Motor speed on the Trail-Making task (motor speed; [4]): trend for enhanced motor speed
Motor speed (motor speed; as printed under Results - Study 2, sentence breaks off): trend for enhanced motor
fMRI activation pattern, pre- v post-intervention scans (cerebral activation; Study 1: individual subjects, increasing working memory load): increasing activation in left frontal and left parietal cortices
Performance on the working memory task (cerebral activation; Study 2: n-back task in the scanner, v placebo): not reflected in differential performance
fMRI activation relative to placebo treated subjects (cerebral activation; Study 2: right thalamic, right temporal, right posterior parietal and bilateral frontal regions, p=0.005 corrected): greater activation
CISI (insulin sensitivity) (HFD/STZ-treated rats; [6]): 1.3 ± 0.04
Chromium - Brain (HFD/STZ-treated rats; [6]): 22.6 ± 1.2 ng/g
Cortisol (HFD/STZ-treated rats; [6]): 11.5 ± 0.4
Glucose (HFD/STZ-treated rats; [6]): 287.0 ± 2.7 mg/dL
Insulin Brain (HFD/STZ-treated rats; [6]): 8.9 ± 2.0 ng/g
Insulin Serum (HFD/STZ-treated rats; [6]): 25.9 ± 0.5 uU/mL
Melatonin (HFD/STZ-treated rats; [6]): 16.3 ± 0.2 µg/g
Serotonin Brain (HFD/STZ-treated rats; [6]): 520.3 ± 4.1 µg/g
Serotonin Serum (HFD/STZ-treated rats; [6]): 174.9 ± 2.5 mg/dL
Tryptophan Brain (HFD/STZ-treated rats; [6]): 5.5 ± 0.2 µg/g
Tryptophan Serum (HFD/STZ-treated rats; [6]): 16.1 ± 0.3 mg/dL
Insulin resistance compared to the HFD/STZ group (HFD/STZ-treated rats; [7]): reduced
Tolerability / adverse events (HFD/STZ-treated rats; [7]): well tolerated without any adverse events
